Experimental data published in patent US20110053914A1, “Pharmaceutical Combination Comprising 6-Dimethylaminomethyl-1-(3-methoxy-phenyl)-cyclohexane-1,3-diol or 6-Dimethylaminomethyl-1-(3-hydroxy-phenyl)-cyclohexane-1,3-diol and an Antiepileptic” (Gruenenthal GmbH, priority 2009, published 2011).
Structures can show the parent of a compound that is named as a salt. Where two headings read alike, the source gives them in different places.

Experiments:
Assay type in all cases: in vivo, rat
rats [1] = assay: Spinal nerve ligation (Chung model for mononeuropathic pain) in rats, anti-allodynic testing; conditions: 30 min after A; A 4 mg/kg iv; B 10 mg/kg iv 20 min before A or vehicle; tactile allodynia
Method: Under pentobarbital anaesthesia (Narcoren®, 60 mg/kg i.p., Merial GmbH, Hallbergmoos, FRG), the L5, L6 spinal nerves were tightly ligated (Kim and Chung, Pain 1992; 50: 355). The left L5 and L6 spinal nerves were exposed by removing a small piece of the paravertebral muscle and a part of the left spinous process of the L5 lumbar vertebra. The L5 and L6 spinal nerves were then carefully isolated and tightly ligated with silk (NC-silk black, USP 5/0, metric 1, Braun Melsungen AG, Melsungen, FRG). After checking hemostasis, the muscle and the adjacent fascia were closed with sutures and the skin was closed with sutures.
After operation, animals were allowed to recover for one week. Animals develop tactile allodynia which is stable for at least five weeks. […] Threshold for tactile allodynia was measured with an electronic von Frey anesthesiometer (Somedic, Sweden). […] The median of the withdrawal threshold for each animal at a given time is calculated from five individual stimulations with the electronic von Frey filament. Withdrawal thresholds of the injured paws are expressed as % maximal possible effect (% MPE) comparing predrug threshold of Chung-animals (=0% MPE) and control threshold of sham-animals (=100% MPE). […] The effect of each compound and vehicle is calculated for each testing time point (e.g. 0.5, 1, 3 h post administration) as interindividual % MPE value (±SEM). […]

rats [2] = assay: Randall-Selitto test in rats (carrageenan inflammatory pain); conditions: for ED50: Rattus norvegicus, 0.25 h
Method: The weight ratios of the components (a) and (b) that will lead to a supra-additive effect (synergistic effect) of the inventive pharmaceutical composition may be determined via the test of Randall and Selitto as described in Arch. Int. Pharmacodyn., 1957, 111: 409 to 419, which is a model for inflammatory pain. The respective part of the literature is hereby incorporated by reference and forms part of the present disclosure.
Acute inflammation was induced by an intraplantar injection of 0.1 ml of a carrageenan solution (0.5% in distilled water) into one hind paw. The mechanical nociceptive threshold was measured 4 hours after carrageenan injection using an Algesiometer (Ugo Basile, Italy). The device generates a mechanical force with a linear increase over time. The force is applied to the dorsal surface of the inflamed rat hind paw via a cone-shaped stylus with a rounded tip (2 mm tip diameter). The nociceptive threshold is defined as the force (in grams) at which the rat vocalises (cut-off force 250 g). The mechanical nociceptive threshold is measured at different timepoints after the drug or vehicle administration. The antinociceptive and antihyperalgesic activity of the tested substance is expressed as percentages of the maximal possible effect (% MPE). The group size is n=10.
The interactions studies presented herein were performed using equieffective doses of the two components, calculated from the ratio of the respective ED50 values of the components if administered alone.
The application route was intravenous (i.v.) for Axomadol hydrochloride (A) and intraperitoneal (i.p.) for the anticonvulsants Lamotrigine, Lacosamide, Levetiracetam, Retigabine and Carbamazepine. […] According to their respective timepoint of peak effect, A was applied 15 min and the anticonvulsant component also 15 min before timepoint of measurement of the interaction-experiments (i.e. both components were applied simultaneously). Thus, the time point of ED50 calculation of the combination corresponds to the timepoint of the peak effect of the respective compound.

male Sprague Dawley rats = assay: Paw incision model in rats (post-operative pain), electronic von Frey; conditions: intraperitoneal, at maximum effect; effective dose at 25% of the maximum effect; tactile hyperalgesia
From the text: The paw incision model (Brennan, T. J., Vandermeulen, E. P., Gebhart, G. F., Pain 64, (1996), 493-501) is an animal model of post-operative pain.
In male Sprague Dawley rats (body weight 180-200 g) a longitudinal incision of 1 cm length is made, starting 0.5 cm from the proximal end of the paw, through the skin and fascia. Using bent tweezers the muscle is lifted up from the bottom and incised lengthwise, flat and centered using a scalpel. The muscle is spreaded bluntly with the tweezers. Subsequently, the wound is closed with two sutures.
The tactile hyperalgesia two hours after the operation is determined using an electronic von Frey filament (Somedic Sales AB, Hörby, Sweden). […] In order to investigate the sensitivity to the mechanical stimulus, the paw retraction threshold is determined on the ipsilateral paw as well as in the same position on the untreated contralateral paw and is given in grams of the applied pressure. The retraction threshold per paw is measured four times and the median value is then determined. The retraction threshold of the ipsi- and contralateral paw is measured prior administration (pre-test value) and at several times after administration of a substance, namely (15, 30 and 60 minutes after administration). […]
From the median values the Maximum Positive Effect (% MPE) is determined according to the following formula: […]

[3] = ip, i.p., 15 min p. appl. (peak effect), read-out: ED50 [mg/kg] of the anticonvulsant alone

SMILES | ED50 (rats [2]; [3]) [mg/kg] | Time point of peak effect p. appl. (rats [2]; anticonvulsant alone, i.p.) [min] | further results
NCC1(CC(=O)O)CCCCC1 [B, Gabapentin hydrochloride] |  |  | Effect % MPE (time after administration of A) (rats [1]): 16 ± 5 (30 min) % MPE
Nc1nnc(-c2cccc(Cl)c2Cl)c(N)n1 [Lamotrigine] | 35.3 | 15 | 
CC(C)C[C@H](CN)CC(=O)O [(S)-pregabaline] |  |  | ED25 [mg/kg] (confidence interval) of the individual substance (male Sprague Dawley rats): 18.8 mg/kg
NC(=O)N1c2ccccc2C=Cc2ccccc21 [Carbamazepine] | 30 | 15 | 
COC[C@@H](NC(C)=O)C(=O)NCc1ccccc1 [Lacosamide] | 35.9 | 15 | ED50 [mg/kg] of the anticonvulsant alone (rats [2]; i.p., 15 min p. appl. (peak effect)): 35.9 mg/kg
COc1cccc([C@@]2(O)C[C@H](O)CC[C@@H]2CN(C)C)c1 (racemic) [A, (1RS,3RS,6RS)-6-dimethylaminomethyl-1-(3-methoxy-phenyl)-cyclohexane-1,3-diol hydrochloride] |  |  | Time point of peak effect p. appl. (rats [2]; A alone, i.v., timepoint of first measurement): 15 min; ED50 (rats [2]; iv, i.v., 15 min p. appl. (peak effect), read-out: ED50 [mg/kg] of A alone): 15.3 mg/kg; ED50 [mg/kg] of A alone (rats [2]; i.v., 15 min p. appl. (peak effect), hydrochloride): 15.3 mg/kg; ED25 [mg/kg] (confidence interval) of the individual substance (male Sprague Dawley rats): 9.15 mg/kg; Effect % MPE (time after administration of A) (rats [1]): 29 ± 6 (30 min) % MPE
CC[C@@H](C(N)=O)N1CCCC1=O [Levetiracetam] | 986 | 15 | 
CCOC(=O)Nc1ccc(NCc2ccc(F)cc2)cc1N [Retigabine] | 5.09 | 15 | 
